# Test results reported in patent publication US20220289794A1, “SYNTHETIC ANTIMICROBIAL PEPTIDES” (priority 2019, published 2022).
# Where two headings read alike, the source gives them in different places. Non-standard residues stand in square brackets, D forms with d. Residues, ends and D or L forms follow the SMILES beside them. dDip = N[C@@H](C(=O)O)C(c1ccccc1)c1ccccc1; Dip = N[C@H](C(=O)O)C(c1ccccc1)c1ccccc1; 2Nal = N[C@@H](Cc1ccc2ccccc2c1)C(=O)O; d2Nal = N[C@H](Cc1ccc2ccccc2c1)C(=O)O
# Columns and labels:
# [1] = in vitro; details: human, fresh human red blood cells (washed), pH 7.4
# Experimental: Hemolytic Assay. We investigated the hemolytic effect (hemolytic assay) of the compounds on fresh human red blood cells to determine the cytotoxicity of the compounds. The hemolytic assay was conducted by serial dilution using 1% Triton X, 0.2% Triton X and PBS buffer pH 7.4 as controls. […] 3 mL of the fresh blood sample was washed severally by adding about 10 mL PBS buffer pH 7.4 and centrifuge at 4000 G until the supernatant was cleared. The washed blood sample was diluted to 20 mL volume to be used in the study. An aliquot of 190 μL blood sample was added to 10 μL compound sample in an Eppendorf tube and incubated for 30 min. After incubation, it was centrifuged at 4000 G for 5 min. 100 μL supernatant aliquot was diluted with 1 mL PBS buffer, and the absorbance was measured at 567 nm for the sample. % hemolysis is calculated as follows:
# Where AX is the absorbance at various serial concentrations A0 absorbance of PBS buffer pH 7.4 AX absorbance of 0.2% Triton X control equivalent to 100%
# [2] = system: Escherichia coli (ATCC 25922); details: ATCC 25922
# [3] = system: Pseudomonas aeruginosa (ATCC 27883)
# [4] = system: S. aureus ATCC 29213; details: ATCC 29213
# [5] = system: Methicillin-resistant Staphylococcus aureus MRSA (ATCC BAA-1556); details: ATCC BAA-1556
Structure (SMILES),HC50 at 0.5 h [1] [µg/mL],MIC E. coli ATCC 25922 [2] [µg/mL],MIC P. aeruginosa ATCC 27883 ([3]; ATCC 27883) [µg/mL],MIC S. aureus ATCC 29213 [4] [µg/mL],MIC MRSA ATCC BAA-1556 [5] [µg/mL],MIC P. aeruginosa ATCC 27883 ([3]; P. aeruginosa ATCC 27883) [µg/mL]
N=C(N)NCCC[C@@H](N)C(=O)N[C@H](CCCNC(=N)N)C(=O)N[C@H](CCCNC(=N)N)C(=O)N[C@H](CCCNC(=N)N)C(=O)N[C@@H](Cc1c[nH]c2ccccc12)C(=O)N[C@@H](Cc1ccc2ccccc2c1)C(=O)N[C@@H](Cc1ccc2ccccc2c1)C(=O)O [IFX-113-1] (H-[dR][dR][dR][dR]W[2Nal][2Nal]-OH),300,12.5,12.5,6.2,6.2,–
"N=C(N)NCCC[C@@H]1NC(=O)[C@@H](CCCNC(=N)N)NC(=O)[C@H](CCCNC(=N)N)NC(=O)[C@@H](CCCNC(=N)N)NC(=O)[C@@H](Cc2ccc3ccccc3c2)NC(=O)[C@@H](Cc2ccc3ccccc3c2)NC(=O)[C@H](Cc2c[nH]c3ccccc23)NC1=O [IFX-110, c[arg-Arg-arg-Arg-Trp-naI-naI]] (cyclo([dR]R[dR]RW[d2Nal][d2Nal]))",225,12.5,–,3.1,1.5,12.5
"N=C(N)NCCC[C@@H]1NC(=O)[C@H](CCCNC(=N)N)NC(=O)[C@H](CCCNC(=N)N)NC(=O)[C@@H](Cc2ccc3ccccc3c2)NC(=O)[C@@H](Cc2ccc3ccccc3c2)NC(=O)[C@H](Cc2c[nH]c3ccccc23)NC(=O)[C@H](CCCNC(=N)N)NC1=O [IFX-112, c[Arg-Arg-Arg-Arg-Trp-naI-naI]] (cyclo(RRRRW[d2Nal][d2Nal]))",295,12.5,–,3.1,1.5,12.5
"NCCCC[C@@H]1NC(=O)[C@H](CCCCN)NC(=O)[C@H](CCCCN)NC(=O)[C@H](Cc2ccc3ccccc3c2)NC(=O)[C@H](Cc2ccc3ccccc3c2)NC(=O)[C@H](Cc2c[nH]c3ccccc23)NC(=O)[C@H](CCCCN)NC1=O [IFX-126, c[Lys-Lys-Lys-Lys-Trp-NaI-NaI]] (cyclo([2Nal][2Nal]KKKKW))",610,64,128,12.5,12.5,–
"NCCCC[C@@H]1NC(=O)[C@@H](CCCCN)NC(=O)[C@H](CCCCN)NC(=O)[C@@H](CCCCN)NC(=O)[C@@H](Cc2ccc3ccccc3c2)NC(=O)[C@@H](Cc2ccc3ccccc3c2)NC(=O)[C@H](Cc2c[nH]c3ccccc23)NC1=O [IFX-128, c[lys-Lys-lys-Lys-Trp-naI-naI]] (cyclo(KW[d2Nal][d2Nal][dK]K[dK]))",590,64,64,6.2,6.2,–
"N=C(N)NCCC[C@@H]1NC(=O)[C@H](Cc2ccc3ccccc3c2)NC(=O)[C@H](Cc2ccc3ccccc3c2)NC(=O)[C@H](Cc2c[nH]c3ccccc23)NC(=O)[C@H](CCCNC(=N)N)NC(=O)[C@@H](CCCNC(=N)N)NC(=O)[C@H](CCCNC(=N)N)NC1=O [IFX-106, c[Arg-Arg-arg-Arg-Trp-NaI-NaI]] (cyclo([2Nal][2Nal]RR[dR]RW))",175,25,–,1.5,1.5,12.5
N=C(N)NCCC[C@H](NC(=O)[C@@H](CCCNC(=N)N)NC(=O)[C@@H](N)CCCNC(=N)N)C(=O)N[C@H](CCCNC(=N)N)C(=O)N[C@@H](C(=O)N[C@@H](C(=O)N[C@@H](C(=O)O)C(c1ccccc1)c1ccccc1)C(c1ccccc1)c1ccccc1)C(c1ccccc1)c1ccccc1 [IFX-070-1] (H-R[dR]R[dR][dDip][dDip][dDip]-OH),380,6.2,12.5,3.1,3.1,–
"N=C(N)NCCC[C@H]1NC(=O)[C@H](Cc2ccc3ccccc3c2)NC(=O)[C@H](Cc2ccc3ccccc3c2)NC(=O)[C@@H](Cc2c[nH]c3ccccc23)NC(=O)[C@@H](CCCNC(=N)N)NC(=O)[C@@H](CCCNC(=N)N)NC(=O)[C@@H](CCCNC(=N)N)NC(=O)[C@@H](CCCNC(=N)N)NC1=O [IFX-123, c[arg-arg-arg-arg-arg-trp-NaI-NaI]] (cyclo([2Nal][2Nal][dR][dR][dR][dR][dR][dW]))",190,16,16,3.1,3.1,–
"N=C(N)NCCC[C@@H]1NC(=O)[C@H](CCCNC(=N)N)NC(=O)[C@H](Cc2ccc3ccccc3c2)NC(=O)[C@H](Cc2ccc3ccccc3c2)NC(=O)[C@@H](Cc2c[nH]c3ccccc23)NC(=O)[C@H](CCCNC(=N)N)NC(=O)[C@H](CCCNC(=N)N)NC1=O [IFX-104, c[Arg-Arg-Arg-Arg-trp-NaI-NaI]] (cyclo([2Nal][2Nal]RRRR[dW]))",155,12.5,–,3.1,3.1,12.5
N=C(N)NCCC[C@H](NC(=O)[C@H](CCCNC(=N)N)NC(=O)[C@@H](N)CCCNC(=N)N)C(=O)N[C@@H](CCCNC(=N)N)C(=O)N[C@@H](C(=O)N[C@@H](C(=O)N[C@@H](C(=O)O)C(c1ccccc1)c1ccccc1)C(c1ccccc1)c1ccccc1)C(c1ccccc1)c1ccccc1 [IFX-072-1] (H-RRRR[dDip][dDip][dDip]-OH),470,6.2,12.5,3.1,6.2,–
"NCCCC[C@H]1NC(=O)[C@H](Cc2ccc3ccccc3c2)NC(=O)[C@H](Cc2ccc3ccccc3c2)NC(=O)[C@H](Cc2c[nH]c3ccccc23)NC(=O)[C@@H](CCCCN)NC(=O)[C@@H](CCCCN)NC(=O)[C@@H](CCCCN)NC(=O)[C@@H](CCCCN)NC1=O [IFX-134, c[lys-lys-lys-lys-lys-Trp-NaI-NaI]] (cyclo([2Nal][2Nal][dK][dK][dK][dK][dK]W))",890,128,128,12.5,12.5,–
"NCCCC[C@H]1NC(=O)[C@@H](CCCCN)NC(=O)[C@@H](CCCCN)NC(=O)[C@@H](Cc2ccc3ccccc3c2)NC(=O)[C@@H](Cc2ccc3ccccc3c2)NC(=O)[C@@H](Cc2c[nH]c3ccccc23)NC(=O)[C@@H](CCCCN)NC1=O [IFX-130, c[lys-lys-lys-lys-trp-naI-naI]] (cyclo([d2Nal][d2Nal][dK][dK][dK][dK][dW]))",880,128,128,6.2,12.5,–
N=C(N)NCCC[C@@H](N)C(=O)N[C@H](CCCNC(=N)N)C(=O)N[C@H](CCCNC(=N)N)C(=O)N[C@H](CCCNC(=N)N)C(=O)N[C@H](C(=O)N[C@H](C(=O)N[C@H](C(=O)O)C(c1ccccc1)c1ccccc1)C(c1ccccc1)c1ccccc1)C(c1ccccc1)c1ccccc1 [IFX-073-1] (H-[dR][dR][dR][dR][Dip][Dip][Dip]-OH),410,6.2,12.5,3.1,6.2,–
"N=C(N)NCCC[C@@H]1NC(=O)[C@H](CCCNC(=N)N)NC(=O)[C@H](CCCNC(=N)N)NC(=O)[C@@H](Cc2ccc3ccccc3c2)NC(=O)[C@@H](Cc2ccc3ccccc3c2)NC(=O)[C@@H](Cc2c[nH]c3ccccc23)NC(=O)[C@H](CCCNC(=N)N)NC1=O [IFX-114, c[Arg-Arg-Arg-Arg-trp-naI-naI]] (cyclo(RRRR[dW][d2Nal][d2Nal]))",380,12.5,25,3.1,3.1,–
"N=C(N)NCCC[C@@H]1NC(=O)[C@H](CCCNC(=N)N)NC(=O)[C@H](CCCNC(=N)N)NC(=O)[C@H](CCCNC(=N)N)NC(=O)[C@@H](Cc2ccc3ccccc3c2)NC(=O)[C@H](Cc2ccc3ccccc3c2)NC(=O)[C@H](Cc2c[nH]c3ccccc23)NC1=O [IFX-102, c[Arg-Arg-Arg-Arg-Trp-NaI-naI]] (cyclo([2Nal][d2Nal]RRRRW))",200,12.5,25,3.1,3.1,–
"NCCCC[C@@H]1NC(=O)[C@H](CCCCN)NC(=O)[C@H](CCCCN)NC(=O)[C@@H](Cc2ccc3ccccc3c2)NC(=O)[C@@H](Cc2ccc3ccccc3c2)NC(=O)[C@H](Cc2c[nH]c3ccccc23)NC(=O)[C@H](CCCCN)NC1=O [IFX-127, c[Lys-Lys-Lys-Lys-Trp-naI-naI]] (cyclo(KKKKW[d2Nal][d2Nal]))",540,64,128,6.2,6.2,–
"N=C(N)NCCC[C@H]1NC(=O)[C@@H](CCCNC(=N)N)NC(=O)[C@@H](CCCNC(=N)N)NC(=O)[C@@H](Cc2ccc3ccccc3c2)NC(=O)[C@@H](Cc2ccc3ccccc3c2)NC(=O)[C@@H](Cc2c[nH]c3ccccc23)NC(=O)[C@@H](CCCNC(=N)N)NC1=O [IFX-115, c[arg-arg-arg-arg-trp-naI-naI]] (cyclo([dR][dR][dR][dR][dW][d2Nal][d2Nal]))",360,12.5,25,3.1,3.1,–
